# Experiments:
# [1] = cited from earlier work
# [2] = test system: mice; conditions: administered orally; cited from earlier work
# [3] = in vivo; cited from earlier work
# [4] = test system: rats; conditions: administered orally; cited from earlier work
# [5] = Laboratory assays of sensitivity, solubility and stability of the active agents at different pH conditions; format: physicochemical
# Description: Laboratory assays were carried out for verifying the sensitivity, solubility and stability of the active agents at different pH conditions. Thus, their stability was tested at different pH conditions. Due to the sensitivity of the active agents, the addition order of these components, as well as the excipient and vehicle selection are of great importance for avoiding degradation or incompatibilities of said active agents.
smiles,measurement,setting,value
C[C@H]1C[C@H]2[C@@H]3CCC4=CC(=O)C=C[C@]4(C)[C@@]3(F)[C@@H](O)C[C@]2(C)[C@@]1(O)C(=O)CO [Betametasone],solubility in water,[1]; water,almost insoluble
Clc1ccccc1C(c1ccccc1)(c1ccccc1)n1ccnc1 [Clotrimazole],LD50,[2],923 mg/kg
same,hydrolysis in acid solution at high temperature,"[1]; acid solution, high temperature",rapidly hydrolised
same,absorbed in topical applications,[3],3-10 % of the dose
same,LD50,[4],708 mg/kg
CC(=O)O[C@H]1C[C@@]2(C)[C@@H](C[C@@H](O)[C@H]3[C@@]4(C)CC[C@@H](O)[C@@H](C)[C@@H]4CC[C@@]32C)/C1=C(\CCC=C(C)C)C(=O)O [Fusidic acid],stability in the presence of acid substances,[5],greatly reduced
